The values below come from ChEMBL document CHEMBL1135558, “Chemical modification of reveromycin A and its biological activities” (Bioorg Med Chem Lett, 2002).

Assay [1] concerns the target T1, Isoleucyl-tRNA synthetase (Rattus norvegicus, UniProt O35880).
T1 sequence (O35880 whole entry): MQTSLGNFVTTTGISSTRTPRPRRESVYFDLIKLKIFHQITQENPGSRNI
In words: Inhibitory concentration against Isoleucyl-tRNA synthetase (IleRS) activity.

In assay [2] the test system is NRK. In words: In vitro inhibition of protein synthesis in srcts-NRK cell at 1 ug/mL. The assay is classed as functional. Particulars: Rattus norvegicus.
In assay [3] the test system is NRK. Description: Morphological reversion of srcts-NRK cells concentration at 100 ug/mL. The assay is classed as functional, Rattus norvegicus.
Assay [4] concerns NRK. Description: Morphological reversion of src-transformed-NRK cells at 20 ug/mL. The format is functional, Rattus norvegicus.
For assay [5], the system named is NRK. Description: Morphological reversion of src-transformed-NRK cells at 50 ug/mL. The assay is classed as functional.
The subject of assay [6] is NRK. Description: Morphological reversion of src-transformed-NRK cells at 10 ug/mL. The format is functional, Rattus norvegicus.
In assay [7] the test system is NRK. In words: Morphological reversion of src-transformed-NRK cells at 5 ug/mL; 20-50. The format is functional, Rattus norvegicus.
Assay [8] concerns NRK. In words: Morphological reversion of src-transformed-NRK cells at 2 ug/mL. The assay is classed as functional, Rattus norvegicus.
In assay [9] the test system is NRK. In words: Morphological reversion of src-transformed-NRK cells at 5 ug/mL. The format is functional, Rattus norvegicus.
Assay [10] concerns NRK. In words: In vitro inhibition of protein synthesis in src-transformed-NRK cell at 1 ug/mL. The assay is classed as functional. Particulars: Rattus norvegicus.
Assay [11] has as its system NRK. Description: Morphological reversion of src-transformed-NRK cells at 0.1 ug/mL. The format is functional, Rattus norvegicus.
For assay [12], the system named is NRK. In words: Morphological reversion of src-transformed-NRK cells at 1 ug/mL. The assay is classed as functional, Rattus norvegicus.

pIC50: −log10 of the molar value.

The compound `CCCC[C@]1([C@H](/C=C/C(C)=C/C(=O)O)OC(=O)CCC(=O)O)CC[C@]2(CC[C@H](C)[C@@H](C/C=C(C)/C=C/[C@H](O)[C@@H](C)/C=C/C(=O)O)O2)O1` [REVEROMYCIN B] had a negative-log IC50 (pIC50) in [1] greater than 5.82. Moreover, the inhibition at 1 µg/mL with NRK [2] is less than 20%. This compound also had a Reversion in the assay with NRK [3] of less than 20%.

For the compound `CCCC[C@@]1(OC)CC[C@]2(CC[C@H](C)[C@@H](C/C=C(C)/C=C/[C@H](O)[C@@H](C)/C=C/C(=O)O)O2)O[C@H]1/C=C/C(C)=C/C(=O)O`, in assay [1], the negative logarithm of the IC50 (pIC50) is 7.35. The Reversion in the assay with NRK [4] was 50%; in the assay on NRK [5] it was greater than 80%; with NRK [6], 50%; with NRK [3] it was greater than 80%. In the assay on NRK [2], this compound returned an inhibition at 1 µg/mL greater than 80%.

As for `CCCC[C@@]1(OC(=O)CCC(=O)O)CC[C@]2(CC[C@H](C)[C@@H](CCC(C)CC[C@H](O)[C@@H](C)CCC(=O)O)O2)O[C@H]1CCC(C)CC(=O)O` (stereo partly drawn), the pIC50 in assay [1] is greater than 5.83. In the assay on NRK [2], this compound came in with an inhibition at 1 µg/mL of less than 20%. The compound also registered a Reversion in the assay with NRK [3] of less than 20%.

`CCCC[C@@]1(OC(=O)CCC(=O)O)CC[C@]2(CC[C@H](C)[C@@H](C/C=C(C)/C=C/[C@H](O)[C@@H](C)/C=C/C(=O)O)O2)O[C@H]1/C=C/C(C)=C/C(=O)O` [REVEROMYCIN A] showed a negative-log IC50 (pIC50) in assay [1] of 8.71. Moreover, the Reversion in the assay with NRK [4] was greater than 80%; with NRK [7] it was 20%; in the assay with NRK [5] it was greater than 80%; in the assay on NRK [6], 50%; in the assay with NRK [3] it was greater than 80%; in the assay on NRK [8] it was less than 20%. Moreover, in the assay on NRK [2], the inhibition at 1 µg/mL was greater than 80%.

In assay [1], `CCCC[C@@]1(OC(=O)CCC(=O)O)CC[C@]2(CC[C@H](C)[C@@H](C/C=C(C)/C=C/[C@H](OC(C)=O)[C@@H](C)/C=C/C(=O)O)O2)O[C@H]1/C=C/C(C)=C/C(=O)O` gave a pIC50 greater than 5.85. For the same compound, the Reversion was greater than 80% in the assay with NRK [4]; less than 20% with NRK [9]; greater than 80% with NRK [5]; 50% in the assay on NRK [6]; greater than 80% with NRK [3]. The compound further displayed an inhibition at 1 µg/mL with NRK [10] of less than 20%.

For `CCCC[C@@]1(OC(=O)CCC(=O)OC)CC[C@]2(CC[C@H](C)[C@@H](C/C=C(C)/C=C/[C@H](O)[C@@H](C)/C=C/C(=O)OC)O2)O[C@H]1/C=C/C(C)=C/C(=O)O`, the pIC50 in assay [1] is 5.84. In addition, the Reversion in the assay with NRK [9] was greater than 80%; in the assay on NRK [11] it was 20%; in the assay with NRK [6], greater than 80%; with NRK [3], greater than 80%; in the assay with NRK [8], greater than 80%; with NRK [12], greater than 80%. Further, the inhibition at 1 µg/mL in the assay with NRK [2] was less than 20%.

Regarding `CCCC[C@@]1(O)CC[C@]2(CC[C@H](C)[C@@H](C/C=C(C)/C=C/[C@H](O)[C@@H](C)/C=C/C(=O)O)O2)O[C@H]1/C=C/C(C)=C/C(=O)O`, in assay [1], the pIC50 is 7.13. In the assay on NRK [2], this compound returned an inhibition at 1 µg/mL greater than 80%. Moreover, the Reversion in the assay with NRK [3] was less than 20%.

Compound `CCCC[C@@]1(OC(=O)CCC(=O)OC)CC[C@]2(CC[C@H](C)[C@@H](C/C=C(C)/C=C/[C@H](O)[C@@H](C)/C=C/C(=O)OC)O2)O[C@H]1/C=C/C(C)=C/C(=O)OC` had a negative logarithm of the IC50 (pIC50) in [1] greater than 5.85. The same compound registered an inhibition at 1 µg/mL with NRK [2] of less than 20%. Besides, the Reversion in the assay on NRK [3] is recorded as less than 20%.

Regarding `CCCC[C@@]1(OCSC)CC[C@]2(CC[C@H](C)[C@@H](C/C=C(C)/C=C/[C@H](O)[C@@H](C)/C=C/C(=O)O)O2)O[C@H]1/C=C/C(C)=C/C(=O)O`, the pIC50 in assay [1] is 6.45. Further, the Reversion in the assay with NRK [5] is recorded as 50%; with NRK [6], less than 20%; in the assay on NRK [3], greater than 80%. The same compound gave an inhibition at 1 µg/mL in the assay with NRK [2] greater than 80%.

`CCCC[C@@]1(OC(=O)CCC(=O)O)CC[C@]2(CC[C@H](C)[C@@H](C/C=C(C)/C=C/[C@H](OC)[C@@H](C)/C=C/C(=O)O)O2)O[C@H]1/C=C/C(C)=C/C(=O)O` had a pIC50 in assay [1] of 6.61. Also, at 1 µg/mL the inhibition in the assay on NRK [2] was 50%. The Reversion in the assay with NRK [3] was less than 20%.

`CCCC[C@@]1(OCSC)CC[C@]2(CC[C@H](C)[C@@H](C/C=C(C)/C=C/[C@H](O)[C@@H](C)/C=C/C(=O)O)O2)O[C@H]1/C=C/C(C)=C/C(=O)OC`: the pIC50 in assay [1] was greater than 5.80. This compound also showed an inhibition at 1 µg/mL in the assay on NRK [2] of less than 20%. Moreover, the Reversion in the assay with NRK [3] was less than 20%.

Regarding `CCCC[C@]1([C@@H](O)/C=C/C(C)=C/C(=O)O)CC[C@]2(CC[C@H](C)[C@@H](C/C=C(C)/C=C/[C@H](O)[C@@H](C)/C=C/C(=O)O)O2)O1`, the pIC50 in assay [1] is greater than 5.75. The inhibition at 1 µg/mL with NRK [2] was less than 20%. Further, the Reversion with NRK [3] was less than 20%.

`CCCC[C@]1([C@H](/C=C/C(C)=C/C(=O)O)OC)CC[C@]2(CC[C@H](C)[C@@H](C/C=C(C)/C=C/[C@H](O)[C@@H](C)/C=C/C(=O)O)O2)O1` showed a negative-log IC50 (pIC50) in [1] greater than 5.76. In the assay with NRK [2], this compound registered an inhibition at 1 µg/mL of less than 20%. This compound also registered a Reversion with NRK [3] of less than 20%.
